Data taken from US20130303509A1, “NAMPT INHIBITORS” (AbbVie Inc., priority 2012, published 2013).

What follows are compounds tested on PC3 cells (assay: NAMPT Cell Proliferation Assay). Conditions: Homo sapiens, PC-3, 120 h, 5 days incubation, cell viability by Cell Titer Glo.
Format: cell-based
In short: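 Seeded at 500 cells/well in RPMI with 10% heat-inactivated FBS and left to attach overnight at 37° C, 5% CO2. Compounds were added as 10-fold dilutions […] for 5 days, then viability was read by CellTiter-Glo. IC50s came from sigmoidal fits of percent inhibition.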

Compound	IC50
Cc1cccc(C(=O)N2CCC(c3ccc(NC(=O)[C@H]4CCN(c5cccnn5)C4)cc3)CC2)c1C [Example 728, (3S)-N-{4-[1-(2,3-dimethylbenzoyl)piperidin-4-yl]phenyl}-1-(pyridazin-3-yl)pyrrolidine-3-carboxamide]	6.97 nM
O=C(Nc1ccc(O[C@@H]2CCN(C(=O)c3cscn3)C2)cc1)C1CN(c2cccnn2)C1 [Example 498, 1-(pyridazin-3-yl)-N-(4-{[(3R)-1-(1,3-thiazol-4-ylcarbonyl)pyrrolidin-3-yl]oxy}phenyl)azetidine-3-carboxamide]	6.64 nM
Cc1cncc(N2CC(C(=O)Nc3ccc(C4CCN(C(=O)c5ccccc5)CC4)cc3)C2)c1 [Example 741, N-[4-(1-benzoylpiperidin-4-yl)phenyl]-1-(5-methylpyridin-3-yl)azetidine-3-carboxamide]	181 nM
O=C(Nc1ccc(OC2CCN(C(=O)c3ccoc3)CC2)cc1)C1CN(c2cccnc2)C1 [Example 54, N-(4-{[1-(furan-3-ylcarbonyl)piperidin-4-yl]oxy}phenyl)-1-(pyridin-3-yl)azetidine-3-carboxamide]	3.31 nM
O=C(Nc1ccc(O[C@@H]2CCN(C(=O)c3ccc(C(F)(F)F)cc3)C2)cc1)C1CN(c2ccnnc2)C1 [Example 475, 1-(pyridazin-4-yl)-N-[4-({(3R)-1-[4-(trifluoromethyl)benzoyl]pyrrolidin-3-yl}oxy)phenyl]azetidine-3-carboxamide]	594 nM
Cc1ccc(C)c(C(=O)N2CCC(c3ccc(NC(=O)[C@H]4CCN(c5cccnn5)C4)cc3)CC2)c1 [Example 696, (3S)-N-{4-[1-(2,5-dimethylbenzoyl)piperidin-4-yl]phenyl}-1-(pyridazin-3-yl)pyrrolidine-3-carboxamide]	4.67 nM
O=C(Nc1ccc(OC2CCN(C(=O)Cc3cccc(C(F)(F)F)c3)CC2)cc1)C1CN(c2cccnn2)C1 [Example 240, 1-(pyridazin-3-yl)-N-{4-[(1-{[3-(trifluoromethyl)phenyl]acetyl}piperidin-4-yl)oxy]phenyl}azetidine-3-carboxamide]	10.3 nM
CC(C)(C)CCN1CCC(c2ccc(NC(=O)C3CN(c4cccnc4)C3)cc2)CC1 [Example 87, N-{4-[1-(3,3-dimethylbutyl)piperidin-4-yl]phenyl}-1-(pyridin-3-yl)azetidine-3-carboxamide]	31.7 nM
O=C(Nc1ccc(C2CCN(C(=O)c3ccc(F)cc3F)CC2)cc1)[C@H]1CCN(c2cccnn2)C1 [Example 692, (3S)-N-{4-[1-(2,4-difluorobenzoyl)piperidin-4-yl]phenyl}-1-(pyridazin-3-yl)pyrrolidine-3-carboxamide]	4.23 nM
O=C(Nc1ccc(OC2CCN(C(=O)c3cccs3)CC2)cc1)C1CN(c2cccnn2)C1 [Example 249, 1-(pyridazin-3-yl)-N-(4-{[1-(thiophen-2-ylcarbonyl)piperidin-4-yl]oxy}phenyl)azetidine-3-carboxamide]	2.35 nM
O=C(NCC(=O)N1CCC(c2ccc(NC(=O)[C@H]3CCN(c4cccnn4)C3)cc2)CC1)c1ccccc1 [Example 650, (3S)-N-{4-[1-(N-benzoylglycyl)piperidin-4-yl]phenyl}-1-(pyridazin-3-yl)pyrrolidine-3-carboxamide]	86.9 nM
Cc1ccccc1C(=O)N1CCC(c2ccc(C(=O)NC3CN(c4cccnn4)C3)s2)CC1 [Example 812, 5-[1-(2-methylbenzoyl)piperidin-4-yl]-N-[1-(pyridazin-3-yl)azetidin-3-yl]thiophene-2-carboxamide]	10.2 nM
O=C(Nc1ccc(C2CCN(C(=O)c3cc(F)cc(F)c3)CC2)cc1)C1CN(c2cccnn2)C1 [Example 400, N-{4-[1-(3,5-difluorobenzoyl)piperidin-4-yl]phenyl}-1-(pyridazin-3-yl)azetidine-3-carboxamide]	6.8 nM
CC(C)C(=O)N1CCC(Oc2ccc(NC(=O)C3CN(c4ccnnc4)C3)cc2)CC1 [Example 294, N-(4-{[1-(2-methylpropanoyl)piperidin-4-yl]oxy}phenyl)-1-(pyridazin-4-yl)azetidine-3-carboxamide]	83.2 nM
CCOCC(=O)N1CCC(c2ccc(NC(=O)[C@H]3CCN(c4cccnn4)C3)cc2)CC1 [Example 635, (3S)-N-{4-[1-(ethoxyacetyl)piperidin-4-yl]phenyl}-1-(pyridazin-3-yl)pyrrolidine-3-carboxamide]	41.6 nM
O=C(Nc1ccc(O[C@@H]2CCN(C(=O)c3ccc(Cl)cc3)C2)cc1)C1CN(c2ccnnc2)C1 [Example 465, N-(4-{[(3R)-1-(4-chlorobenzoyl)pyrrolidin-3-yl]oxy}phenyl)-1-(pyridazin-4-yl)azetidine-3-carboxamide]	616 nM
O=C(Nc1ccc(C2CCN(C(=O)c3ccc(F)cc3)CC2)cc1F)C1CN(c2cccnn2)C1 [Example 832, N-{2-fluoro-4-[1-(4-fluorobenzoyl)piperidin-4-yl]phenyl}-1-(pyridazin-3-yl)azetidine-3-carboxamide]	16.7 nM
CC(C)(O)C(=O)N1CCC(Oc2ccc(NC(=O)[C@H]3CCN(c4cccnc4)C3)cc2)CC1 [Example 17, (3S)-N-(4-{[1-(2-hydroxy-2-methylpropanoyl)piperidin-4-yl]oxy}phenyl)-1-(pyridin-3-yl)pyrrolidine-3-carboxamide]	93.7 nM
O=C(Nc1ccc(C2CCN(C(=O)c3ccccc3)CC2)cc1)C1CN(c2cncc(F)c2)C1 [Example 666, N-[4-(1-benzoylpiperidin-4-yl)phenyl]-1-(5-fluoropyridin-3-yl)azetidine-3-carboxamide]	8.06 nM
O=C(Nc1ccc(C2CCN(C(=O)c3nccs3)CC2)cc1)C1CN(c2ccnnc2)C1 [Example 526, 1-(pyridazin-4-yl)-N-{4-[1-(1,3-thiazol-2-ylcarbonyl)piperidin-4-yl]phenyl}azetidine-3-carboxamide]	0.94 nM
C#CCCC(=O)N1CCC(c2ccc(NC(=O)[C@H]3CCN(c4cccnn4)C3)cc2)CC1 [Example 713, (3S)-N-{4-[1-(pent-4-ynoyl)piperidin-4-yl]phenyl}-1-(pyridazin-3-yl)pyrrolidine-3-carboxamide]	9.99 nM
O=C(Nc1ccc(C2CCN(C(=O)c3ccc(F)cc3F)CC2)cc1)C1CN(c2ccnnc2)C1 [Example 547, N-{4-[1-(2,4-difluorobenzoyl)piperidin-4-yl]phenyl}-1-(pyridazin-4-yl)azetidine-3-carboxamide]	3.02 nM
CCC(C)CC(=O)N1CCC(c2ccc(NC(=O)[C@H]3CCN(c4cccnn4)C3)cc2)CC1 (stereo partly drawn) [Example 682, (3S)-N-{4-[1-(3-methylpentanoyl)piperidin-4-yl]phenyl}-1-(pyridazin-3-yl)pyrrolidine-3-carboxamide]	2.73 nM
O=C(Nc1ccc(O[C@@H]2CCN(C(=O)Cc3ccccc3F)C2)cc1)C1CN(c2ccnnc2)C1 [Example 459, N-[4-({(3R)-1-[(2-fluorophenyl)acetyl]pyrrolidin-3-yl}oxy)phenyl]-1-(pyridazin-4-yl)azetidine-3-carboxamide]	36.9 nM
O=C(Nc1ccc(OC2CCN(C(=O)c3ccsc3)CC2)cc1)C1CN(c2ccnnc2)C1 [Example 278, 1-(pyridazin-4-yl)-N-(4-{[1-(thiophen-3-ylcarbonyl)piperidin-4-yl]oxy}phenyl)azetidine-3-carboxamide]	79.1 nM
O=C(Nc1ccc(OC2CCN(C(=O)CC(F)(F)F)CC2)cc1)C1CN(c2ccnnc2)C1 [Example 268, 1-(pyridazin-4-yl)-N-(4-{[1-(3,3,3-trifluoropropanoyl)piperidin-4-yl]oxy}phenyl)azetidine-3-carboxamide]	82.9 nM
